Laboratory results published in US6960591B2, “Propane-1,3-dione derivative” (Yamanouchi Pharmaceutical Co., Ltd., priority 2000, dated 2005).
Where a name gives a salt, the structure may show the parent alone.

Each compound was assayed against T1, human GnRH receptor (Homo sapiens, UniProt P30968) (assay: Test of in vitro GnRH receptor antagonism: 125I-D-Trp6-LHRH binding inhibition). Conditions: inhibition of 0.1 nM 125I-D-Trp6-LHRH binding; membrane fractions of CHO cells expressing human GnRH receptor; 4° C. for 3 hours; read-out: IC50 value (concentration at which PMB equals 50%).
T1 construct: expressed in transfected cells; membrane fraction
T1 sequence (P30968 1-328): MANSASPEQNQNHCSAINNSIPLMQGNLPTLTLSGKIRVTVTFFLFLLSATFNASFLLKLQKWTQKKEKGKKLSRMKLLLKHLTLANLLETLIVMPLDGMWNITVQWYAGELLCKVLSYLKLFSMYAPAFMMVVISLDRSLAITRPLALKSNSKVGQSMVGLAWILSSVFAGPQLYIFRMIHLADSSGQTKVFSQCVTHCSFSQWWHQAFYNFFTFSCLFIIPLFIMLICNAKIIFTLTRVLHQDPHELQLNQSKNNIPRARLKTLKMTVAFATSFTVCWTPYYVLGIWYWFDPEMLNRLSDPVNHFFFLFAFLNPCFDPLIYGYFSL
Method: In the following, in vitro GnRH receptor antagonistic effect of the pharmaceutical drugs and compounds of the invention was evaluated by inhibition of binding of ^125I-D-Trp^6-LHRH to human GnRH receptor.
1. Test of In Vitro GnRH Receptor Antagonism
(1) Preparation of Human GnRH Receptor-Expressing CHO (Chinese Hamster Ovary) Cells
Expression of human […] was carried out in a similar manner to a common method for protein expression (Chapter 9 In: Current Protocols In Molecular Biology: ed. by F. M. Ausubel et al., Greene Publishing Associates and Wiley-Interscience, 9.0.1-9.9.6 (1987), S. S. Kaker et al., Biol. Biophys. Res. Commun. 189, 289-295 (1992), R. Grosse et al., Mol. Endocrinol. 11, 1305-1318 (1997)). CHO cells were cultured (medium: αMEM, 10% FCS, containing an antibiotic-antimycotic agent) with an expression vector which has human GnRH receptor gene (SEQ ID No.: 1) and a transfection reagent FuGENE6 (manufactured by Boehringer-Mannheim) for 24 hours for transfection, whereby the CHO cells stably expressing human GnRH receptor (SEQ ID No.: 2, S. S. Kaker et al., Biol. Biophys. Res. Commun, 189, 289-295 (1992)) were obtained. The expression of the aimed receptor was confirmed by PCR method.
(2) Preparation of CHO Cell Membrane Fraction Containing Human GnRH Receptor
The CHO cells expressing the human GnRH receptor (3×10^8 cells), prepared in the above (1), were suspended in phosphate buffered saline (PBS) and centrifuged for 3 minutes at 100×G. The pellet suspended in 100 ml of a homogenate buffer (10 mM NaHCO3, 5 mM EDTA (ethylenediaminetetraacetic acid), pH 7.5) was homogenized using a Polytron homogenizer. After the resulting homogenate was centrifuged for 15 minutes at 400×G, the supernatant was centrifuged for 1 hour at 100,000×G. The membrane fraction obtained as a pellet was suspended in 60 ml of storage buffer (25 mM Tris-HCl, 1 mM EDTA, 10 μg/ml a protease inhibitor (Pefabloc SC (manufactured by Merck)), 1 μg/ml pepstatin A, 20 μg/ml leupeptin, 0.03% sodium azide, pH 7.5), and stored at −80° C. until use. […]
The membrane fractions of CHO cells expressing the human GnRH receptor which were prepared in the above (2) were diluted with assay buffer (HBSS (Hanks balanced salt solution), 20 mM HEPES, 0.1% BSA (bovine serum albumin), 100 μg/ml bacitracin, pH 7.4) so as to be 20 μg/tube, and were dispensed into tubes in an amount of 148 μl. […] The filters were washed three times with 1 ml of assay buffer and the radioactivity on the filter was measured using a γ-counter. Binding inhibition (%) (PMB) of each test compound at various concentrations were determined according to the following equation: PMB=(SB−NSB)/(TB−NSB)×100 (wherein TB: total binding radioactivity, SB: radioactivity when a test compound was added, NSB: non-specific binding radioactivity). […]

Structure (SMILES)	IC50 [nM]
Nc1cccc(C(=O)C(C(=O)c2cc(F)cc(F)c2)=C2Nc3ccccc3N2)c1 [Example 40, 1-(3-aminophenyl)-3-(3,5-difluorophenyl)-2-(1,3-dihydro-2H-benzimidazol-2-ylidene)propane-1,3-dione hydrochloride]	0.1 to 1
O=C(C(C(=O)c1cccc(NCc2c[nH]cn2)c1)=C1Nc2ccccc2N1)c1cc(F)cc(F)c1 [Example 83, 1-(3,5-difluorophenyl)-2-(1,3-dihydro-2H-benzimidazol-2-ylidene)-3-{3-[(1H-imidazol-4-ylmethyl)amino]phenyl}propane-1,3-dione hydrochloride]	0.1 to 1
O=C(C(C(=O)c1cccc(CNCCc2ccncc2)c1)=C1Nc2ccccc2N1)c1ccccc1 [Example 79, 2-(1,3-dihydro-2H-benzimidazol-2-ylidene)-1-phenyl-3-(3-{[(2-pyridin-4-ylethyl)amino]methyl}phenyl)propane-1,3-dione hydrochloride]	0.1 to 1
O=C(C(C(=O)c1cc(F)cc(F)c1)=C1Nc2ccc(OCc3cccnc3)cc2N1)c1ccccc1 [Example 402, 1-(3,5-difluorophenyl)-2-[5-(pyridin-3-ylmethoxy)-1,3-dihydro-2H-benzimidazol-2-ylidene]-3-phenylpropane-1,3-dione oxalate]	0.1 to 1
